Measured values taken from patent US20240116985A1, “STAPLED PEPTIDES AND METHODS THEREOF” (priority 2020, published 2024).
≈ marks a conversion by molar mass, not a printed value. Like-named read-outs stand apart in the source and are kept apart here.

How the values were obtained:
CHI Log D procedure = type: physicochemical; conditions: for CHI Log D: pH 7.4; for chromatographic logD: pH 7.4, CHI Log D
Solubility in PBS = type: physicochemical
Method in brief: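 HPLC quantitation of peptide remaining in the PBS supernatant after ultracentrifugation, referenced to a 50 μM solution in DMSO.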

[1] = biological target: T1, full-length beta-Catenin (Uniprot ID P35222) (Homo sapiens, UniProt P35222); experiment: Fluorescence polarization IC50 (beta-catenin / 5FAM-TCF4 10-53 competition); type: binding
T1 construct: 10 nM full-length beta-Catenin (Uniprot ID P35222)
T1 sequence (P35222 1-781): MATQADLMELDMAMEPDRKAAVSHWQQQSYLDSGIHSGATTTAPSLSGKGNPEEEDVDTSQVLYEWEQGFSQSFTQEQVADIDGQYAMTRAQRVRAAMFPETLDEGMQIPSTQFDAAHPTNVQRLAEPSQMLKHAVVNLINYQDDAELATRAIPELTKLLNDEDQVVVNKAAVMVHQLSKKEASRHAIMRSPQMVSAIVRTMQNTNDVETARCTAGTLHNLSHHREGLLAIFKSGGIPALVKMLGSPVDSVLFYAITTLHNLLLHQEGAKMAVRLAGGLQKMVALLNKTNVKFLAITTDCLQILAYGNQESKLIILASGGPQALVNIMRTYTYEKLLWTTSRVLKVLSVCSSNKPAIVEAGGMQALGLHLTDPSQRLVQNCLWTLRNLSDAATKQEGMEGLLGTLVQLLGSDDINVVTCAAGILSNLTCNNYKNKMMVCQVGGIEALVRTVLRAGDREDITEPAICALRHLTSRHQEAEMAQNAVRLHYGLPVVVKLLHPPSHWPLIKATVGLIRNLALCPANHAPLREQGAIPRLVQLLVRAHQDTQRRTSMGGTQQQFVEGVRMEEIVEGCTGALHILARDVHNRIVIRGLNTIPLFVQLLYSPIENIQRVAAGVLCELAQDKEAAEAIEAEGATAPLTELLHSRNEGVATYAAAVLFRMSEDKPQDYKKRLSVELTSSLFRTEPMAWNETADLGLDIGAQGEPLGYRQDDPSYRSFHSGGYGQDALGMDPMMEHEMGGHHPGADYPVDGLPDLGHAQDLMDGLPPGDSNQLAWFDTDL

[2] = fluorescence polarization, read-out: beta-Catenin FP IC50
[3] = fluorescence polarization, beta-catenin, read-out: FP EC50

| SMILES | CHI Log D (CHI Log D procedure) | Solubility (Solubility in PBS) [µM] | IC50 [1, 2] [µM] | IC50 ([1]; read-out: FP EC50) [µM] | IC50 [1, 3] [µM] | IC50 ([1]; read-out: beta-Catenin FP IC50) [µM] | chromatographic logD (CHI Log D procedure) | Solubility (Solubility in PBS; Solubility (uM)) [µM] | IC50 ([1]; Table E2-1, read-out: beta-Catenin FP IC50) [µM] |
| --- | --- | --- | --- | --- | --- | --- | --- | --- | --- |
| CC[C@H](C)[C@@H]1NC(=O)[C@H](CC(=O)O)NC(=O)[C@]2(CC=CCCCC3(CCCC=CCCCCCC[C@@](C)(C(=O)N[C@@H](Cc4ccccc4)C(=O)N[C@@H](Cc4csc5ccccc45)C(=O)N[C@@H](Cc4c[nH]c5ccccc45)C(N)=O)NC(=O)[C@H](CCC(N)=O)NC(=O)[C@H](Cc4ccccc4)NC(=O)[C@H](C)NC(=O)[C@H](C)NC(=O)[C@H](CCC(=O)O)NC(=O)[C@H](CC(=O)O)NC3=O)NC1=O)CCCN2C(C)=O (stereo partly drawn) [I-644, Ac-PL3-Asp-Ile-B5-Asp-Glu-Ala-Ala-Phe-Gln-S8-Phe-BztA-Trp-NH2] | 2.837 | 22 (≈ 42.7 µg/mL) | 0.808 | 0.808 | – | – | – | – | – |
| CC(=O)N1CCC[C@]12CC=CCCCC1(CCCC=CCCCOC(=O)N3CC[C@@](C(=O)N[C@@H](Cc4ccccc4)C(=O)N[C@@H](Cc4csc5ccccc45)C(=O)N[C@@H](CCC(N)=O)C(N)=O)(C3)NC(=O)[C@H](CC(C)C)NC(=O)[C@H](Cc3ccccc3)NC(=O)[C@H](C)NC(=O)[C@H](C)NC(=O)[C@H](CCC(=O)O)NC(=O)[C@H](CC(=O)O)NC1=O)NC(=O)[C@H](CC(C)(C)C)NC(=O)[C@H](CC(=O)O)NC2=O (stereo partly drawn) [I-1073, Ac-PL3-Asp-Npg-B5-Asp-Glu-Ala-Ala-Phe-Leu-PyrS2-Phe-BztA-Gln-NH2] | 1.831 | 31 (≈ 59.7 µg/mL) | – | – | 0.409 | 0.409 | – | – | – |
| CC(=O)N1CCC[C@]12CC=CCCCC1(CCCC=CCCCOC(=O)N3CC[C@@](C(=O)N[C@@H](Cc4ccccc4)C(=O)N[C@@H](Cc4csc5ccccc45)C(=O)N[C@@H](CCC(N)=O)C(N)=O)(C3)NC(=O)[C@H](CC(C)C)NC(=O)[C@H](Cc3ccc(C(F)(F)F)cc3)NC(=O)[C@H](C)NC(=O)[C@H](C)NC(=O)[C@H](CC(=O)O)NC(=O)[C@H](CC(=O)O)NC1=O)NC(=O)[C@H](CC(C)(C)C)NC(=O)[C@H](CC(=O)O)NC2=O (stereo partly drawn) [I-1129, Ac-PL3-Asp-Npg-B5-Asp-Asp-Ala-Ala-4F3MeF-Leu-PyrS2-Phe-BztA-Gln-NH2] | – | – | – | – | – | 0.039 | 2.33 | 29 (≈ 57.4 µg/mL) | – |
| CC(=O)N1CCC[C@]12CC=CCCCC1(CCCC=CCCCOC(=O)N3CC[C@@](C(=O)N[C@@H](Cc4ccsc4)C(=O)N[C@@H](Cc4csc5ccccc45)C(=O)N[C@@H](CO)C(N)=O)(C3)NC(=O)[C@H](CC(C)C)NC(=O)[C@H](Cc3ccccc3)NC(=O)[C@H](C)NC(=O)[C@H](C)NC(=O)[C@H](Cc3cccc(C(=O)O)c3)NC(=O)[C@H](CC(=O)O)NC1=O)NC(=O)[C@H](CC(C)(C)C)NC(=O)[C@H](CC(=O)O)NC2=O (stereo partly drawn) [I-987, Ac-PL3-Asp-Npg-B5-Asp-3COOHF-Ala-Ala-Phe-Leu-PyrS2-3Thi-BztA-Ser-NH2] | 2.115 | 10 (≈ 19.5 µg/mL) | – | – | 0.112 | 0.112 | – | – | – |
| CC(=O)N1CCC[C@]12CC=CCCCC1(CCCC=CCCCOC(=O)N3CC[C@@](C(=O)N[C@@H](Cc4ccccc4Cl)C(=O)N[C@@H](Cc4csc5ccccc45)C(=O)N[C@@H](CO)C(N)=O)(C3)NC(=O)[C@H](CC3CCCCC3)NC(=O)[C@H](Cc3ccccc3)NC(=O)[C@H](C)NC(=O)[C@H](C)NC(=O)[C@H](CC(=O)O)NC(=O)[C@H](CC(=O)O)NC1=O)NC(=O)[C@H](CC1CCCCC1)NC(=O)[C@H](CC(=O)O)NC2=O (stereo partly drawn) [I-1113, Ac-PL3-Asp-Cha-B5-Asp-Asp-Ala-Ala-Phe-Cha-PyrS2-2C1F-BztA-Ser-NH2] | – | 10 (≈ 19.7 µg/mL) | – | – | – | 0.064 | 2.99 | – | – |
| CC(=O)N1CCC[C@]12CC=CCCCC1(CCCC=CCCCCCC[C@@](C)(C(=O)N[C@@H](Cc3cccc(F)c3)C(=O)N[C@@H](Cc3csc4ccccc34)C(N)=O)NC(=O)[C@H](CCC(N)=O)NC(=O)[C@H](Cc3ccsc3)NC(=O)[C@H](C)NC(=O)[C@H](C)NC(=O)[C@H](CCC(=O)O)NC(=O)[C@H](CC(=O)O)NC1=O)NC(=O)[C@H](C)NC(=O)[C@H](CC(=O)O)NC2=O (stereo partly drawn) [I-431, Ac-PL3-Asp-Ala-B5-Asp-Glu-Ala-Ala-3Thi-Gln-S8-3FF-BztA-NH2] | – | – | 1.32 | – | – | – | 2.23 | 33 (≈ 57.3 µg/mL) | – |
| CC(=O)N1CCC[C@]12CC=CCCCC1(CCCC=CCCCOC(=O)N3CC[C@@](C(=O)N[C@@H](Cc4ccsc4)C(=O)N[C@@H](Cc4csc5ccccc45)C(=O)N[C@@H](CC(C)C)C(N)=O)(C3)NC(=O)[C@H](CC(N)=O)NC(=O)[C@H](Cc3ccccc3)NC(=O)[C@H](C)NC(=O)[C@H](C)NC(=O)[C@H](CN(CC(=O)O)CC(F)(F)F)NC(=O)[C@H](CC(=O)O)NC1=O)NC(=O)[C@H](CC(C)(C)C)NC(=O)[C@H](CC(=O)O)NC2=O (stereo partly drawn) [I-946, Ac-PL3-Asp-Npg-B5-Asp-TfeGA-Ala-Ala-Phe-Asn-PyrS2-3Thi-BztA-Leu-NH2] | 2.209 | 47 (≈ 94.7 µg/mL) | – | – | 0.798 | 0.798 | – | – | – |
| CC(=O)N1CCC[C@]12CC=CCCCC1(CCCC=CCCCOC(=O)N3CC[C@@](C(=O)N[C@@H](Cc4ccsc4)C(=O)N[C@@H](Cc4csc5ccccc45)C(=O)N[C@@H](Cc4c[nH]cn4)C(N)=O)(C3)NC(=O)[C@H](CC(N)=O)NC(=O)[C@H](Cc3ccccc3)NC(=O)[C@H](C)NC(=O)[C@H](C)NC(=O)[C@H](Cc3ccc(O)cc3)NC(=O)[C@H](CC(=O)O)NC1=O)NC(=O)[C@H](CC(C)(C)C)NC(=O)[C@H](CC(=O)O)NC2=O (stereo partly drawn) [I-843, Ac-PL3-Asp-Npg-B5-Asp-Tyr-Ala-Ala-Phe-Asn-PyrS2-3Thi-BztA-His-NH2] | – | 10 (≈ 19.8 µg/mL) | – | – | – | 0.154 | 2.49 | – | – |
| CC(=O)N1CCC[C@]12CC=CCCCC1(CCCC=CCCCCCC[C@@](C)(C(=O)N[C@@H](Cc3ccccc3)C(=O)N[C@@H](Cc3csc4ccccc34)C(=O)N[C@@H](Cc3c[nH]cn3)C(N)=O)NC(=O)[C@H](CC(N)=O)NC(=O)[C@H](Cc3ccccc3)NC(=O)[C@H](C)NC(=O)[C@H](C)NC(=O)[C@H](CC(=O)O)NC(=O)[C@H](CC(=O)O)NC1=O)NC(=O)[C@H](C)NC(=O)[C@H](CC(=O)O)NC2=O (stereo partly drawn) [I-465, Ac-PL3-Asp-Ala-B5-Asp-Asp-Ala-Ala-Phe-Asn-S8-Phe-BztA-His-NH2] | 2.023 | 40 (≈ 72.9 µg/mL) | 0.081 | 0.081 | – | – | – | – | – |
| CC[C@H](C)[C@@H]1NC(=O)[C@H](CC(=O)O)NC(=O)[C@]2(CC=CCCCC3(CCCC=CCCCCCC[C@@](C)(C(=O)N[C@@H](Cc4ccccc4)C(=O)N[C@@H](Cc4csc5ccccc45)C(N)=O)NC(=O)[C@H](CC(N)=O)NC(=O)[C@H](Cc4ccccc4)NC(=O)[C@H](C)NC(=O)[C@H](C)NC(=O)[C@H](CCC(=O)O)NC(=O)[C@H](CC(=O)O)NC3=O)NC1=O)CCCN2C(C)=O (stereo partly drawn) [I-715, Ac-PL3-Asp-Ile-B5-Asp-Glu-Ala-Ala-Phe-Asn-S8-Phe-BztA-NH2] | 2.762 | 25 (≈ 43.5 µg/mL) | 0.0605 | 0.0605 | – | – | – | – | – |
| CC(=O)N1CCC[C@]12CC=CCCCC1(CCCC=CCCCCCC[C@@](C)(C(=O)N[C@@H](Cc3ccsc3)C(=O)N[C@@H](Cc3csc4ccccc34)C(N)=O)NC(=O)[C@H](CC(N)=O)NC(=O)[C@H](Cc3ccccc3)NC(=O)[C@H](C)NC(=O)[C@H](C)NC(=O)[C@H](CCC(=O)O)NC(=O)[C@H](CC(=O)O)NC1=O)NC(=O)[C@H](CC(C)C)NC(=O)[C@H](CC(=O)O)NC2=O (stereo partly drawn) [I-716, Ac-PL3-Asp-Leu-B5-Asp-Glu-Ala-Ala-Phe-Asn-S8-3Thi-BztA-NH2] | 2.622 | 50 (≈ 87.4 µg/mL) | 0.091 | 0.091 | – | – | – | – | – |
| CC(=O)N1CCC[C@]12CC=CCCCC1(CCCC=CCCCCCC[C@@](C)(C(=O)N[C@@H](Cc3ccccc3)C(=O)N[C@@H](Cc3csc4ccccc34)C(=O)N[C@@H](CCC(N)=O)C(N)=O)NC(=O)[C@H](CCC(N)=O)NC(=O)[C@H](Cc3cccc(C(F)(F)F)c3)NC(=O)[C@H](C)NC(=O)[C@H](C)NC(=O)[C@H](CC(=O)O)NC(=O)[C@H](CC(=O)O)NC1=O)NC(=O)[C@H](C)NC(=O)[C@H](CC(=O)O)NC2=O (stereo partly drawn) [I-380, Ac-PL3-Asp-Ala-B5-Asp-Asp-Ala-Ala-3F3MeF-Gln-S8-Phe-BztA-Gln-NH2] | 2.19 | 49 (≈ 92.9 µg/mL) | – | – | 0.552 | – | – | – | 0.552 |
| CC(=O)N1CCC[C@]12CC=CCCCC1(CCCC=CCCCOC(=O)N3CC[C@@](C(=O)N[C@@H](Cc4ccccc4Cl)C(=O)N[C@@H](Cc4csc5ccccc45)C(=O)N[C@@H](CCC(N)=O)C(N)=O)(C3)NC(=O)[C@H](CC(C)C)NC(=O)[C@H](Cc3ccccc3)NC(=O)[C@H](C)NC(=O)[C@H](C)NC(=O)[C@H](CCC(=O)O)NC(=O)[C@H](CC(=O)O)NC1=O)NC(=O)[C@H](CC1CCCCC1)NC(=O)[C@H](CC(=O)O)NC2=O (stereo partly drawn) [I-1078, Ac-PL3-Asp-Cha-B5-Asp-Glu-Ala-Ala-Phe-Leu-PyrS2-2C1F-BztA-Gln-NH2] | 2.162 | 27 (≈ 53.6 µg/mL) | – | – | 0.352 | 0.352 | – | – | – |
